Measured values published in PubChem BioAssay (NCI).
Values joined by “and” are separate entries in the source; they are usually repeats but may differ in a detail not shown here. Equal entries are not always repeated.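 Results reflect a 48-hour exposure of cells in 96-well plates to compound at five concentrations. GI50 is the concentration that inhibits growth by half. TGI denotes the concentration required for complete inhibition of growth.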

Experiments:
Assay in all cases: NCI anticancer screen, dose series, 48 h
LXFL 529 NSCLC = tested on: LXFL 529 NSCLC
TK-10 renal = tested on: TK-10 renal
UO-31 renal = tested on: UO-31 renal
SK-MEL-2 melanoma = tested on: SK-MEL-2 melanoma
CCRF-CEM leukemia = tested on: CCRF-CEM leukemia
DMS 114 small cell lung = tested on: DMS 114 small cell lung
NCI-H522 lung = tested on: NCI-H522 lung
HOP-92 NSCLC = tested on: HOP-92 NSCLC
HS 578T breast = tested on: HS 578T breast
T-47D breast = tested on: T-47D breast

SMILES | TGI (LXFL 529 NSCLC) | TGI (TK-10 renal) [µM] | TGI (UO-31 renal) [µM] | TGI (SK-MEL-2 melanoma) | TGI (CCRF-CEM leukemia) [µM] | TGI (DMS 114 small cell lung) | TGI (NCI-H522 lung) [µM] | TGI (HOP-92 NSCLC) | GI50 (LXFL 529 NSCLC) [µM] | GI50 (TK-10 renal) [µM] | GI50 (SK-MEL-2 melanoma) [µM] | GI50 (NCI-H522 lung) [µM] | GI50 (HOP-92 NSCLC) [µM] | GI50 (DMS 114 small cell lung) [µM] | GI50 (UO-31 renal) [µM] | GI50 (CCRF-CEM leukemia) [µM] | GI50 (HS 578T breast) [µM] | TGI (HS 578T breast) [µM] | GI50 (T-47D breast) [µM] | TGI (T-47D breast) [µM]
CSc1snc2sc3c(Cl)nnnc3c12 | 4.85 µM | 30.9 | 25.6 | 27.7 µM | 11 | 29 µM |  |  |  |  |  |  |  |  |  |  |  |  |  | 
Cc1cccc(C(C)(C)C)c1NC(=O)CCc1nc(=S)[nH][nH]1 | > 100 µM | > 100 | > 100 | > 100 µM | > 100 | > 100 µM | > 100 | > 100 µM |  |  |  |  |  |  |  |  |  |  |  | 
CCOC(=O)c1cnc2c(ccc3ncccc32)c1NCCCN(CC)CC | > 100 µM | > 100 | > 100 | > 100 µM | > 100 |  | > 100 | > 100 µM |  |  |  |  |  |  |  |  |  |  |  | 
CC(=O)O[C@@]1(C)[C@@H](C)C(=O)O[C@@H]2CCN3CC=C(COC(=O)[C@]1(C)O)[C@H]23 | > 100 µM | > 100 | > 100 | > 100 µM | > 100 | > 100 µM | > 100 | > 100 µM |  |  |  |  |  |  |  |  |  |  |  | 
CC(C)(C)c1ccc(OCCOCCOc2ccc(C(C)(C)C)cc2S(=O)(=O)Nc2ccc([N+](=O)[O-])cc2)c(S(=O)(=O)Nc2ccc([N+](=O)[O-])cc2)c1 |  | > 100 | > 100 | > 100 µM | > 100 | > 100 µM |  | 72.3 µM |  |  |  |  |  |  |  |  |  |  |  | 
O=C(O/N=C1/CCC/C1=C\c1ccccc1)c1ccc(Cl)c(Cl)c1 | > 100 µM | > 100 | > 100 | > 100 µM | > 100 | > 100 µM | > 100 | > 100 µM |  |  |  |  |  |  |  |  |  |  |  | 
O=C1C2C(C(=O)N1c1ccccc1)C1([N+](=O)[O-])C=C3c4ccccc4N(C(=O)c4ccccc4)C32C2C(=O)N(c3ccccc3)C(=O)C21 (centres undefined) | > 100 µM | > 100 | > 100 | > 100 µM | > 100 | > 100 µM | > 100 | > 100 µM |  |  |  |  |  |  |  |  |  |  |  | 
COc1ccc2c3c(c(C(=O)c4ccccc4)oc13)CCC2 | > 100 µM | > 100 |  |  | > 100 | > 100 µM |  |  |  |  |  |  |  |  |  |  |  |  |  | 
COC(=O)C12OCC34C(CC5C(C)C6=CC(=O)OC6=CC5(C)C3C(O)C1O)OC(=O)C(O)C24 (centres undefined) | 0.737 µM and 1.36 µM | 58.2 | 61.8 | 0.944 µM and 2.43 µM |  | 0.527 µM and 4.35 µM |  | 0.525 µM and 2.33 µM | 0.0379 | 0.534 | 0.313 | 0.0501 | 0.146 | 0.0441 |  |  |  |  |  | 
NC1=NN(c2ccccc2)C(=O)C1C(=O)C(=O)Nc1nccs1 (centres undefined) | > 100 µM | > 100 | > 100 | > 100 µM | > 100 | > 100 µM | > 100 | > 100 µM |  |  |  |  |  |  |  |  |  |  |  | 
Nc1n[n+](-c2ccccc2)no1 | > 100 µM | > 100 | > 100 |  | > 100 | 89.8 µM | > 100 | 92.9 µM |  |  |  |  |  |  |  |  |  |  |  | 
CC1=C(O)/C(=C/C(C)CCC/C(C)=C/C=C/C(C)CCCc2ccoc2)OC1=O (centres undefined) | > 100 µM | 78.6 | > 100 | 57.9 µM |  | > 100 µM | > 100 |  |  |  |  |  |  |  |  |  |  |  |  | 
CC(=O)[CH-]C(=O)c1ccccc1.CC(=O)[CH-]C(=O)c1ccccc1.Cc1cc([O-])ccc1Cl.Cc1cc([O-])ccc1Cl.[Ti+4] | > 100 µM |  | 47.4 | 47 µM | 42.3 |  | 34.7 |  | 22.1 |  | 19.3 | 15.6 |  |  | 15.5 | 8.45 |  |  |  | 
O=C(N/N=C1\C(=O)N(c2nccs2)C(=O)C(=O)C1c1nc2ccccc2s1)c1ccccc1O (centres undefined) | > 100 µM | > 100 | 35.4 | > 100 µM | > 100 | > 100 µM | 96.9 | > 100 µM |  |  |  |  |  |  |  |  |  |  |  | 
CCc1cc(CCC(=O)Nc2ccccc2[N+](=O)[O-])[nH]c(=S)n1 | > 100 µM | > 100 | > 100 | > 100 µM | > 100 | > 100 µM |  | > 100 µM |  |  |  |  |  |  |  |  |  |  |  | 
C=C1CC2CC(O)CC(C1)C2 (centres undefined) | > 100 µM | > 100 | > 100 | > 100 µM |  | > 100 µM | > 100 | > 100 µM |  |  |  |  |  |  |  |  |  |  |  | 
CCOC(=O)C(CC/C=C\c1ccccc1)N1CCC[C@H]1C(=O)OC (some centres undefined) | > 100 µM | > 100 | > 100 | > 100 µM | > 100 | > 100 µM | > 100 | > 100 µM |  |  |  |  |  |  |  |  |  |  |  | 
COc1ccc2oc(C(=O)O)c3c2c1CCC3CCC(=O)O (centres undefined) | > 100 µM | > 100 | > 100 | > 100 µM | > 100 | > 100 µM | > 100 | > 100 µM |  |  |  |  |  |  |  |  |  |  |  | 
O=C(CCn1[nH]c(=O)c(Cl)c(Cl)c1=O)NNC(=O)C[n+]1ccccc1 | > 100 µM | > 100 | > 100 | > 100 µM | > 100 | > 100 µM | > 100 |  |  |  |  |  |  |  |  |  |  |  |  | 
O=C(CC(=O)c1cccc2ccccc12)C(=O)NC1C2CC3CC(C2)CC1C3 (centres undefined) | > 100 µM | > 100 | > 100 |  | > 100 | > 100 µM | > 100 | > 100 µM |  |  |  |  |  |  |  |  |  |  |  | 
C/C=C(\CCOS(=O)(=O)c1ccc(C)cc1)[Si](C)(C)C | > 100 µM | > 100 | > 100 | > 100 µM | 27.3 | > 100 µM | > 100 | > 100 µM |  |  |  |  |  |  |  |  |  |  |  | 
N#CC1(C#N)C2C=CC(c3coc4cccc2c34)C1(C#N)C#N (centres undefined) | 21.2 µM | 18.6 | 25.6 | 92.6 µM | 6.71 | 9.98 µM | 3.4 | 35 µM |  |  |  |  |  |  |  |  |  |  |  | 
Cc1cccc2c1CCC21OC(=O)c2c1ccc1ccccc21 (centres undefined) | > 100 µM | > 100 | > 100 | 62.3 µM | > 100 | 72.4 µM | > 100 |  |  |  |  |  |  |  |  |  |  |  |  | 
O=C1c2ccccc2-c2c1c1c(O)cccc1n2Cc1ccccn1 |  | 93.2 | > 100 | > 100 µM | > 100 |  | > 100 | > 100 µM |  | 28.9 | > 100 | > 100 | 17.7 |  | > 100 | 29.5 | 33.6 | > 100 | > 100 | > 100
